Test results taken from patent publication US20140335166A1, “Methods of Making and Using Nano Scale Particles” (priority 2013, published 2014).

Test system: Cultured liver cells
Assay: Phosphatidylcholine biosynthesis as measure of cell function in cultured liver cells incubated with ethanol
Type: cell-based
Settings: 100 mM ethanol, 24 hours
Method: As an example of the effectiveness of using the PPC, the following experiments were conducted. Cultured liver cells were incubated for 24 hours with 100 mM ethanol in the presence of (1) water, (2) VEP/EPC (egg phosphatidylcholine), or (3) VEP/PPC. Agent-dependent alterations in cell function were determined by measuring phosphatidylcholine biosynthesis. Similar results were obtained in the three separate preparations of cultured cells, all of which are reflected in the Table 1 set forth below. Control cells are expressed as 100%, meaning full cellular function. A reduction below 100% represents a decrease in cell function.

CCO [Ethanol]
reduction in cell function from control cells: 63% | % Control ± SEM (phosphatidylcholine biosynthesis, cell function) (control cells = 100%, VEP/EPC (15 Mm EPC), VEP/PPC (15 Mm VEP and 30 Mm PPC)): 37 ± 1 %
